Each compound was assayed on Aorta (assay: Antispasmodic activity in rat aorta assessed as inhibition of phenylephrine-induced aorta contraction at 100 uM after 60 mins relative to control). Conditions: 1 h.
Assay type: functional

Question: Which inhibition at 100 µM does the source give for `C=C[C@]1(C)C=C2CC[C@H]3[C@@](C)(CCC[C@@]3(C)C(=O)OC)[C@@H]2CC1` here?
Answer: Its inhibition at 100 µM is 10.5%.

Question: For `C=C[C@]1(C)C=C2[C@H](O)C[C@H]3[C@@](C)(CCC[C@@]3(C)C(=O)O)[C@@H]2CC1`, which inhibition at 100 µM is on record?
Answer: Its inhibition at 100 µM is 16.8%.

Question: `C=C[C@]1(C)C=C2C(=O)C[C@H]3[C@@](C)(CCC[C@@]3(C)C(=O)O)[C@@H]2CC1` was tested. Which inhibition at 100 µM did it give?
Answer: Its inhibition at 100 µM is 61.5%.

Question: With `C=C[C@@]1(C)CC[C@@H]2C(=C[C@H](O)[C@H]3[C@@]2(C)[C@H](O)CC[C@@]3(C)C(=O)O)[C@H]1O` as the compound, how does the inhibition at 100 µM read?
Answer: Its inhibition at 100 µM is 0%.

Question: For `C=C[C@]1(C)C=C2[C@@H](O)[C@H](O)[C@H]3[C@@](C)([C@H](O)CC[C@@]3(C)C(=O)O)[C@@H]2[C@@H](O)C1`, which inhibition at 100 µM is on record?
Answer: Its inhibition at 100 µM is 0%.

Question: Which inhibition at 100 µM does the source give for `C=C[C@]1(C)C=C2CC[C@@H]3[C@](C)(CO)CCC[C@@]3(C)[C@@H]2CC1` here?
Answer: Its inhibition at 100 µM is 58.8%.

Question: For `C=C[C@]1(C)C=C2CC[C@H]3[C@@](C)(CCC[C@@]3(C)C(=O)O)[C@@H]2CC1`, which inhibition at 100 µM is on record?
Answer: The inhibition at 100 µM was 73.2%.

Question: Which inhibition at 100 µM does the source give for `C=C[C@]1(C)C=C2[C@@H](CC1)[C@]1(C)CCC[C@@](C)(C(=O)OC)[C@H]1C[C@@H]2O` here?
Answer: The inhibition at 100 µM was 82.5%.

Question: For `C=C[C@@]1(C)CC[C@@H]2C(=CC[C@H]3[C@@]2(C)CCC[C@@]3(C)C(=O)O)C1`, which inhibition at 100 µM is on record?
Answer: The inhibition at 100 µM was 50.8%.

Question: `C=C[C@]1(C)C=C2C=C[C@H]3[C@](C)([C@@H]2CC1)[C@@H](O)CC[C@@]3(C)C(=O)O` was tested. Which inhibition at 100 µM did it give?
Answer: Its inhibition at 100 µM is 12.5%.
